Measurements from patent US20260159525A1, “TRICYCLIC HETEROCYCLES” (Merck Patent GmbH, priority 2021, published 2026).

Tests used:
Type in all cases: cell-based
YAP-TEAD interaction = test: SK-HEP-1 reporter assay (8x TEAD responsive elements driving NanoLuc luciferase); conditions: Homo sapiens, SK-HEP1, SK-HEP-1 cells, 24 hour incubation
Procedure: To identify inhibitors of YAP-TEAD interaction, 8× TEAD responsive elements driving the NanoLuc® luciferase gene were stably integrated into SK-HEP-1 cells (ECACC #: 91091816).
For the assay, cells were treated in duplicates with the test compounds in a 10-point dose, with the top concentration starting at 30 μM (final concentration in assay). After a 24 hour incubation at 37° C., 95% rH, and 5% CO2, a luciferase substrate/lysis reagent mix (NanoGlo™, Promega) was added to the cells, allowing the quantification of cellular luciferase activity.
Cell Media: The cells were cultured in the following media: MEM, +10% FBS, +1× GlutaMAX, +1 mM Sodium-Pyruvate, +100 μM Non-essential amino acids, +0.1 mg/ml Hygromycin. The media used for the assay was: MEM (w/o Phenol Red), +10% FBS, +1× GlutaMAX, +1 mM Sodium-Pyruvate, +100 μM Non-essential amino acids, +0.5% Pen/Strep
(§1) Reagents: The reagents used are listed below:
(§2) Cell culture: The cells were examined using an inverted microscope to check for health and cell density. To dissociate adherent cells, the monolayer of cells was washed once with pre-warmed PBS. After removing the PBS, 3 ml pre-warmed Accutase® was added to a F75 flask, dispersed evenly and the flask was allowed to sit in incubator for ˜4-5 minutes.
(§3) When a single cell suspension was obtained, 7 ml of prewarmed growth media was added and resuspended with the cells. The cell suspension was transferred to a sterile 15 ml conical centrifuge tube, and spun for 5 min at 300×g, RT. The supernatant was discarded and the pellet was resuspended in 10 ml of pre-warmed growth media.
(§4) The total cell count was determined, and 20 μl of the desired cell number was added to each well of a 384 well plate using a Multidrop Combi. The plates were then incubated for 24 hours at 37° C., 95% rH, and 5% CO2.
(§5) Compound treatment: 24 hours after seeding, the cells were treated with compounds.
(§6) A 1:333 dilution of compounds, diluted in DMSO, was made to get a final concentration of 0.3% DMSO per well. To transfer the compounds to the assay plate, 120 nl was shot from Labcyte low dead volume plates to the cell plates containing 20 μl media/well with the ECHO 555 liquid handling system. After treatment, the cells were fed with 20 μl fresh pre-warmed assay media using a Multidrop combi.
The assay plates were then incubated for another 24 h at 37° C., 95% rH, and 5% CO2.
Luciferase readout: 24 h after treatment, the plates were taken out of the incubator and were allowed to equilibrate to RT. 30 μl of NanoGlo® reagent was added to the plates in the dark. Plates were shaken for 20 min on a Teleshake (˜1500 rpm) in the dark. The luminescence was then measured using an EnVision microplate reader. The IC50 values were generated using Genedata Screener®.

SW620 Yap KO cells = test: Viability assay in SW620 Yap KO (Yap independent) cells, CyQUANT; conditions: Homo sapiens, SW-620, SW620 YAP and TAZ knocked out (YAP independent), 96 hour incubation, n.d. (x) = not detectable below threshold x
Procedure: (§7) Viability Assay in NCI-H226 (Yap-Dependent) and SW620 Yap KO (Yap Independent) Cells
(§8) The ability of YAP-TEAD inhibitors to inhibit tumor cell growth was evaluated using two different cell lines: NCI-H226, which is a YAP dependent cell line, and SW620 cells, where YAP and TAZ were knocked out using CRISPR to generate a YAP independent cell line.
(§9) For the assay, cells were treated in duplicates with the test compounds in a 10-point dose, 1:3 dilution steps, with the top concentration starting at 30 μM (final concentration in assay). After a 96 hour incubation at 37° C., 95% rH, and 5% CO2, a cell-permeant DNA-binding dye that stains only healthy cells (CyQUANT®, Promega) was added to the cells, allowing the quantification of cell viability.
(§10) Cell Media: The NCI-H226 cells were cultured in the following media: RPMI 1640, +10% FBS, +1× GlutaMAX, +10 mM HEPES, +0.5% Pen/Strep. The SW620-KO cells were cultured in the following media: DMEM/F-12, +10% FBS, +1× GlutaMAX, +10 mM HEPES, +0.5% Pen/Strep.
as §1
as §2, with “health,” for “health and”, “density, etc.” for “density.”, “Accutase” for “Accutase®”
as §3, §4, §5, §6
(§11) The assay plates were then incubated for 96 h at 37° C., 95% rH, and 5% CO2.
(§12) 96 h after treatment 30 μl of CyQuant® reagent was added to the assay plates using a Multidrop combi in the dark. The plates were then incubated for 1 hour at 37° C., 95% rH and 5% CO2. Thereafter, the assay plates were removed from the incubator and allowed to equilibrate to RT for 30 min in the dark without lid. Finally, they were measured using an EnVision microplate reader with a FITC bottom read program.

NCI-H226 cells = test: Viability assay in NCI-H226 (Yap-dependent) cells, CyQUANT; conditions: Homo sapiens, NCI-H226 YAP dependent cell line, 96 hour incubation
Procedure: as §7, §8, §9, §10, §1
as §2, with “health,” for “health and”, “density, etc.” for “density.”, “Accutase” for “Accutase®”
as §3, §4, §5, §6, §11, §12

[1] = number, or n.d. (x) = not detectable below threshold x

| Structure (SMILES) | IC50 (YAP-TEAD interaction; group symbols) | IC50 (SW620 Yap KO cells) | IC50 (NCI-H226 cells; group symbols) | IC50 (YAP-TEAD interaction; [1]) | IC50 (NCI-H226 cells; printed number) |
| --- | --- | --- | --- | --- | --- |
| CNC(=O)c1cc2c3cn(C)nc3n(-c3ccc(C(F)F)cc3)c2s1 [Compound 100, 7-[4-(difluoromethyl)phenyl]-N,4-dimethyl-9-thia-4,5,7-triazatricyclo[6.3.0.0^2,6]undeca-1(8),2,5,10-tetraene-10-carboxamide] | 0.01 to 0.1 µM | > 30 µM | 0.001 to 0.1 µM | – | – |
| Cn1cc2c3cc(C(=O)N[C@@H](CO)c4ccccn4)sc3n(-c3ccc(C(F)(F)F)cc3)c2n1 [Compound 35, N-[(1R)-2-hydroxy-1-(pyridin-2-yl)ethyl]-4-methyl-7-[4-(trifluoromethyl)phenyl]-9-thia-4,5,7-triazatricyclo[6.3.0.0^2,6]undeca-1(8),2,5,10-tetraene-10-carboxamide] | 0.01 to 0.1 µM | > 3.2 µM | 0.001 to 0.1 µM | – | – |
| C[C@H](CO)NC(=O)c1cc2c3cn(C)nc3n(-c3ccc(OC(F)(F)F)cn3)c2s1 [Compound 126, N-[(2R)-1-hydroxypropan-2-yl]-4-methyl-7-[5-(trifluoromethoxy)pyridin-2-yl]-9-thia-4,5,7-triazatricyclo[6.3.0.0^2,6]undeca-1(8),2,5,10-tetraene-10-carboxamide] | 0.01 to 0.1 µM | > 30 µM | 0.001 to 0.1 µM | – | – |
| Cn1cc2c3cc(C(=O)N[C@@H](CO)c4ccccn4)sc3n(-c3ccc(OC(F)(F)F)cn3)c2n1 [Compound 125, N-[(1R)-2-hydroxy-1-(pyridin-2-yl)ethyl]-4-methyl-7-[5-(trifluoromethoxy)pyridin-2-yl]-9-thia-4,5,7-triazatricyclo[6.3.0.0^2,6]undeca-1(8),2,5,10-tetraene-10-carboxamide] | 0.1 to 10 µM | > 30 µM | 0.001 to 0.1 µM | – | – |
| COCC[C@@H](CO)NC(=O)c1cc2c3cn(C)nc3n(-c3ccc(C(F)(F)F)cc3)c2s1 (single isomer, unassigned) [Compound 59] | – | – | 0.1 to 1 µM | > 0.3 µM | – |
| Cn1cc2c3cc(C(=O)N=S(C)(C)=O)sc3n(-c3ccc(C(F)(F)F)cc3)c2n1 [Compound 34, N-[dimethyl(oxo)-λ^6-sulfanylidene]-4-methyl-7-[4-(trifluoromethyl)phenyl]-9-thia-4,5,7-triazatricyclo[6.3.0.0^2,6]undeca-1(8),2,5,10-tetraene-10-carboxamide] | 0.1 to 10 µM | – | 0.1 to 1 µM | – | – |
| Cn1cc2c3cc(C(=O)N=[S@@](C)(=O)CCCO)sc3n(-c3ccc(C(F)(F)F)cc3)c2n1 (single isomer, unassigned) [Compound 61] | – | – | 0.1 to 1 µM | > 9.5 µM | – |
| Cn1cc2c3sc(C(=O)O)cc3n(-c3ccc(C(F)(F)F)cc3)c2n1 [Compound 2, 10-methyl-7-[4-(trifluoromethyl)phenyl]-3-thia-7,9,10-triazatricyclo[6.3.0.0^2,6]undeca-1(11),2(6),4,8-tetraene-4-carboxylic acid] | 0.01 to 0.1 µM | – | 0.1 to 1 µM | – | – |
| Cn1nc2c3sc(C(=O)NC(CO)c4ccccn4)cc3n(-c3ccc(C(F)(F)F)cc3)c2n1 (stereo not shown) [Compound 4, N-[2-hydroxy-1-(pyridin-2-yl)ethyl]-4-methyl-7-[4-(trifluoromethyl)phenyl]-11-thia-3,4,5,7-tetraazatricyclo[6.3.0.0^2,6]undeca-1(8),2,5,9-tetraene-10-carboxamide] | > 10 µM | – | 1 to 10 µM | – | – |
| Cn1cc2c3cc(C(=O)NCCOCCOCCNC(=O)OC(C)(C)C)sc3n(-c3ccc(C(F)(F)F)cc3)c2n1 [Compound 88, tert-butyl N-(2-{2-[2-({4-methyl-7-[4-(trifluoromethyl)phenyl]-9-thia-4,5,7-triazatricyclo[6.3.0.0^2,6]undeca-1(8),2,5,10-tetraen-10-yl}formamido)ethoxy]ethoxy}ethyl)carbamate] | – | – | – | > 30 µM | 0.088 µM |
| CNC(=O)c1cc2c3cn(C)nc3n(-c3ccc(C(F)(F)F)cc3)c2s1 [Compound 32, N,4-dimethyl-7-[4-(trifluoromethyl)phenyl]-9-thia-4,5,7-triazatricyclo[6.3.0.0^2,6]undeca-1(8),2,5,10-tetraene-10-carboxamide] | 0.01 to 0.1 µM | – | 0.001 to 0.1 µM | – | – |
| Cn1nc2c3sc(C(=O)O)cc3n(-c3ccc(C(F)(F)F)cc3)c2n1 [Compound 3, 4-methyl-7-[4-(trifluoromethyl)phenyl]-11-thia-3,4,5,7-tetraazatricyclo[6.3.0.0^2,6]undeca-1(8),2,5,9-tetraene-10-carboxylic acid] | 0.01 to 0.1 µM | – | 0.1 to 1 µM | – | – |
| Cn1cc2c3cc(C(=O)O)sc3n([C@H]3CC[C@@H](C(F)(F)F)CC3)c2n1 [Compound 51, 4-methyl-7-[(1s,4s)-4-(trifluoromethyl)cyclohexyl]-9-thia-4,5,7-triazatricyclo[6.3.0.0^2,6]undeca-1(8),2,5,10-tetraene-10-carboxylic acid] | 0.1 to 10 µM | > 30 µM | – | – | – |
| Cn1cc2c3cc(C(=O)N[C@H](CCO)c4ccccn4)sc3n(-c3ccc(C(F)(F)F)cc3)c2n1 (single isomer, unassigned) [Compound 90] | – | – | – | – | 1.5 µM |
| CNC(=O)c1cc2c(s1)c1cn(C)nc1n2-c1ccc(C(F)(F)F)cc1 [Compound 1, N,10-dimethyl-7-[4-(trifluoromethyl)phenyl]-3-thia-7,9,10-triazatricyclo[6.3.0.0^2,6]undeca-1(11),2(6),4,8-tetraene-4-carboxamide] | 0.1 to 10 µM | – | > 10 µM | – | – |
| CNC(=O)c1cc2c(s1)c1nn(C)nc1n2-c1ccc(C(F)(F)F)cc1 [Compound 5, N,4-dimethyl-7-[4-(trifluoromethyl)phenyl]-11-thia-3,4,5,7-tetraazatricyclo[6.3.0.0^2,6]undeca-1(8),2,5,9-tetraene-10-carboxamide] | > 10 µM | – | 1 to 10 µM | – | – |
| CC[C@H](O)CNC(=O)c1cc2c3cn(C)nc3n(-c3ccc(C(F)(F)F)cc3)c2s1 [Compound 83, N-[(2S)-2-hydroxybutyl]-4-methyl-7-[4-(trifluoromethyl)phenyl]-9-thia-4,5,7-triazatricyclo[6.3.0.0^2,6]undeca-1(8),2,5,10-tetraene-10-carboxamide] | 0.1 to 10 µM | – | – | – | – |
| Cn1nc2c3cc(C(=O)N[C@H](CO)c4ccccn4)sc3n(-c3ccc(C(F)(F)F)cc3)c2n1 [Compound 109, N-[(1S)-2-hydroxy-1-(pyridin-2-yl)ethyl]-4-methyl-7-[4-(trifluoromethyl)phenyl]-9-thia-3,4,5,7-tetraazatricyclo[6.3.0.0^2,6]undeca-1(8),2,5,10-tetraene-10-carboxamide] | 0.1 to 10 µM | – | – | – | – |
